{
  "source": "ChEMBL document CHEMBL1201862",
  "about": "“PubChem BioAssay data set” (2004)",
  "key": {"[1]": {"assay": "Luminescence Cell-Based Dose Response HTS to Identify Inhibitors of 5'UTR Stem-Loop Driven Prion Protein mRNA Translation in H4 Neuroglioblastoma Cells. [Related pubchem assays: 1827 (Project Summary), 1813 (Primary HTS)]", "assay_type": "functional"}, "[2]": {"assay": "alpha-synuclein stem-loop luciferase translation blockers – H4 neuroglioma cells, luminescence, confirmation (AID 1988)", "assay_type": "functional, cell-based"}, "HEK293": {"test_system": "HEK293", "assay": "EBV LMP1 TES2 canonical NF-kB signalling blockers – cell-based, HEK293, luciferase, cherry-pick, dose response (AID 588343)", "assay_type": "functional", "details": "Homo sapiens"}, "[3]": {"assay": "A549 cell cytotoxicity, dose response, cytotoxicity control, plate reader, cherry-pick, antagonist series (AID 743412)", "assay_type": "functional, cell-based"}, "[4]": {"assay": "toxicity toward HepG2 liver cells – cell-based, plate reader, cherry-pick, antagonist series, cytotoxicity control, dose response (AID 743416)", "assay_type": "functional"}, "[5]": {"assay": "blockers of bursicon-stimulated LGR2 cAMP reporter – cell-based, HEK293, CRE-luciferase reporter, cherry pick, set 2, dose response (AID 743343);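 also: transfected cells were stimulated with diluted bursicon conditioned medium after compound addition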", "assay_type": "functional"}, "[6]": {"assay": "blockade of melanocortin 4 receptor signaling – cell-based, plate reader, cherry pick, counter-screen for LGR2 antagonist project, dose response (AID 743444);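 also: transfected HEK 293 cells stimulated with alpha-MSH peptide; potency of inhibitors of the alpha-MSH evoked signal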", "assay_type": "functional"}, "[7]": {"assay": "potency of ADAM10 substrate cleavage blockers – biochemical, QFRET, dose response (AID 743254);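 also: ADAM10 enzyme with the DM2 quenched FRET peptide as substrate; EDANS fluorescence gain as the protease cuts the substrate; inhibitor potency against ADAM10 proteolytic activity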"}, "[8]": {"biological_target": "T1, Disintegrin and metalloproteinase domain-containing protein 17 (Homo sapiens, UniProt P78536)", "T1 sequence (P78536 whole entry, the tested form may be a part)": "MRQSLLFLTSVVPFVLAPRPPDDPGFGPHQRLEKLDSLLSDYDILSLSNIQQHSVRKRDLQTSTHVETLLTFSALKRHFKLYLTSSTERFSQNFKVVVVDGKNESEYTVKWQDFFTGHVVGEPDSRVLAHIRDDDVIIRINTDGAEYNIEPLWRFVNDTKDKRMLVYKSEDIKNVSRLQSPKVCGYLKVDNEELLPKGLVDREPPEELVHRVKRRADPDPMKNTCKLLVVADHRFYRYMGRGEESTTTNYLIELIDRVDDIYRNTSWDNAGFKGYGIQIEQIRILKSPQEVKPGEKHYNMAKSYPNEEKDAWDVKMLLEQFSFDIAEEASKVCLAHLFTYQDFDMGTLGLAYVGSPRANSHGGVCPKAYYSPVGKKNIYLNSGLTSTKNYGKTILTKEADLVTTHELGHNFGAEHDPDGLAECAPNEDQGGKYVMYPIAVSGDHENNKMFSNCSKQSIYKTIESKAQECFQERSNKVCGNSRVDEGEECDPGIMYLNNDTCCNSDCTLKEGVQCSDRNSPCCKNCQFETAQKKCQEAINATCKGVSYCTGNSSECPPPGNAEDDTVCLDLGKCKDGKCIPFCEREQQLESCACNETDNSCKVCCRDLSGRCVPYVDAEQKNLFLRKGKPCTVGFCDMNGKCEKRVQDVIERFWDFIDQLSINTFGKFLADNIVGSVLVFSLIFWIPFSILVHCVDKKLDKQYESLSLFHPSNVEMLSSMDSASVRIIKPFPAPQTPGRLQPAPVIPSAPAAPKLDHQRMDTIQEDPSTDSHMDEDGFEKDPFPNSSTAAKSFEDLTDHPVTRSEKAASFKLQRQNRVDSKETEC", "assay": "inhibition of ADAM17 substrate cleavage – biochemical, quenched FRET substrate, counter-screen for ADAM10 exosite inhibitor project, dose response (AID 743253)"}, "Kallikrein-7": {"biological_target": "Kallikrein-7 (Homo sapiens, UniProt P49862)", "sequence (P49862 whole entry)": "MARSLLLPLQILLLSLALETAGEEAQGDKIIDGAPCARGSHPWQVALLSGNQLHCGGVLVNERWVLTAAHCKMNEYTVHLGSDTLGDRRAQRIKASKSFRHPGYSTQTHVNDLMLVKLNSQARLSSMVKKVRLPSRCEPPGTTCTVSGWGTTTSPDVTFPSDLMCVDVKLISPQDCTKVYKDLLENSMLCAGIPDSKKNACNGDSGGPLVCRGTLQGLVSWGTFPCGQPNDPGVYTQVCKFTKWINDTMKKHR", "assay": "Fluorescence Intensity-based biochemical primary high throughput dose response assay to identify activators of kallikrein-7 (K7) zymogen."}, "Cytochrome P450 1A2": {"biological_target": "T2, Cytochrome P450 1A2 (Homo sapiens, UniProt P05177)", "T2 sequence (P05177 whole entry)": "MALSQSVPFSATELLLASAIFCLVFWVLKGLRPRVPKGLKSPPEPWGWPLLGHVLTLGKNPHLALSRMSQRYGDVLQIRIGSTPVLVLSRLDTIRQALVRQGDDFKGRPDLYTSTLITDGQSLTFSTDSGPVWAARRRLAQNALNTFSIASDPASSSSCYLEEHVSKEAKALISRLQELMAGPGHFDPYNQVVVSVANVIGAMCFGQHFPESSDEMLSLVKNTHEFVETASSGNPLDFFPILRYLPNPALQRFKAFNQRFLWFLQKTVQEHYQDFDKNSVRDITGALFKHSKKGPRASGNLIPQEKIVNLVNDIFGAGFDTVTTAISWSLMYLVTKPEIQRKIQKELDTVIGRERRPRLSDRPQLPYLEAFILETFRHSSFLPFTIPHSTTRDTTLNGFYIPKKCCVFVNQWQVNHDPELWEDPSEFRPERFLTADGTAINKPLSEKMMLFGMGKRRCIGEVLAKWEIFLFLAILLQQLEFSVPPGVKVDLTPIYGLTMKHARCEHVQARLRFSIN"}, "H9c2": {"test_system": "H9c2", "assay": "cells", "assay_type": "functional, cell-based", "details": "Rattus norvegicus, H9c2, Myocardium"}, "Galanin receptor type 3": {"biological_target": "Galanin receptor type 3 (Homo sapiens, UniProt O60755)", "sequence (O60755 whole entry)": "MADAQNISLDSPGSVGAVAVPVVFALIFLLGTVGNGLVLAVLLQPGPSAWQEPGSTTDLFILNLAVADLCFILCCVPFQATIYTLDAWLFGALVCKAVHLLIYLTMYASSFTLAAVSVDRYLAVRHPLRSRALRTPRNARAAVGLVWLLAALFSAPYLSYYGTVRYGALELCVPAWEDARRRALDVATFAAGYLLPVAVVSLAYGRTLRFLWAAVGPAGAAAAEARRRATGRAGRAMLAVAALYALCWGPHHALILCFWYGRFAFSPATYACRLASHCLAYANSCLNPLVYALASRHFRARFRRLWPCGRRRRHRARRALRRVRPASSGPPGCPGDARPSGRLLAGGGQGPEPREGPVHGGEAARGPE", "assay": "Fluorescence-based cell-based primary high throughput dose response assay to identify antagonists of the Galanin Receptor 3 (GalR3).", "assay_type": "functional"}, "cells": {"assay": "cells", "assay_type": "functional, cell-based", "details": "HEK-CNG"}, "INS1": {"test_system": "INS1", "assay": "INS-1E survival protection against cytokine death – cell-based, luminescence, retest, dose response (AID 449756);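 also: cell death triggered by IL-1 beta plus TNF-alpha plus IFN-gamma mixture; protective hits raise ATP signal compared with cytokine alone wells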", "assay_type": "functional", "details": "Rattus norvegicus"}, "Protein Wnt-3a": {"biological_target": "Protein Wnt-3a (Mus musculus, UniProt P27467)", "sequence (P27467 whole entry)": "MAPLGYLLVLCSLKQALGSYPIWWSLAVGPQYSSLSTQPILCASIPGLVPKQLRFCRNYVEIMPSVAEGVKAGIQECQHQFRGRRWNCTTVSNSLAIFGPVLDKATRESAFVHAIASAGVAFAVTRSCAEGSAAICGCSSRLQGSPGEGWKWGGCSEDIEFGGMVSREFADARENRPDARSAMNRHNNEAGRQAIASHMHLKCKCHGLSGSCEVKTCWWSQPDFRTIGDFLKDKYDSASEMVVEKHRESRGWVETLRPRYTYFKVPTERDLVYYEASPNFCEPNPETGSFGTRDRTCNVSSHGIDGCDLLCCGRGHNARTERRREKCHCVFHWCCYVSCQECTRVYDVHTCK", "assay": "antagonism of Wnt3a pathway luciferase reporter – Wnt-LIGHT cells, luminescence, selectivity assay for Gli-SUFU antagonist project, dose response (AID 651570);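 also: Wnt-LIGHT reporter cells stimulated with conditioned medium from Wnt3a-producing cells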", "assay_type": "functional", "details": "read-out: IC50_Mean"}, "[9]": {"biological_target": "T3, COUP transcription factor 2 (Homo sapiens, UniProt P24468)", "T3 sequence (P24468 whole entry)": "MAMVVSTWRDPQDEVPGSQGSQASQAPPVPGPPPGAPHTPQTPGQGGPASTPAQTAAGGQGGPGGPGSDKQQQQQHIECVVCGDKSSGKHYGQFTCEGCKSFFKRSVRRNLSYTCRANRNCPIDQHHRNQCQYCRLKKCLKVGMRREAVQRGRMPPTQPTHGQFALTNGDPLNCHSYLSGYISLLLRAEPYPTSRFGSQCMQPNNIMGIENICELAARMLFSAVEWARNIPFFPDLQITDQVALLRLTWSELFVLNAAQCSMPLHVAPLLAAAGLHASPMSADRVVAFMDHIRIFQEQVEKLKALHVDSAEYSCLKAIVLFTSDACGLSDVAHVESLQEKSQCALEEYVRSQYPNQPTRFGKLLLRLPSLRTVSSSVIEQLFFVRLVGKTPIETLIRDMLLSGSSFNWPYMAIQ", "assay": "Luminescence-based cell-based high throughput dose response assay to identify inhibitors of COUP-TFII (NR2F2).", "assay_type": "functional"}, "[10]": {"assay": "general mammalian cell viability loss – inhibitor set, cherry-pick, set 2, cytotoxicity control for miR-122 modulator project, dose response (AID 720697)", "assay_type": "functional, cell-based"}, "[11]": {"assay": "viability of PTEN-deleted HCT116 cells – cell-based, HCT116 PTEN knockout, dose response (AID 1047);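 also: cells exposed to compound for 60 hours before readout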", "assay_type": "functional"}, "[12]": {"assay": "viability of HCT116 lacking mutant beta-catenin – cell-based, human colon tumor, dose response (AID 1045);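 also: cells exposed to compound for 60 hours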", "assay_type": "functional"}, "[13]": {"assay": "inhibition of ADAM10 peptide cleavage – biochemical, FRET peptide substrate, recombinant human ADAM10, selectivity assay for ADAM17 exosite inhibitor project, dose response (AID 743259);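 also: ADAM10 enzyme cleaving a FRET peptide substrate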"}, "[14]": {"biological_target": "T4, Heat shock factor protein 1 (Mus musculus, UniProt P38532)", "T4 sequence (P38532 whole entry)": "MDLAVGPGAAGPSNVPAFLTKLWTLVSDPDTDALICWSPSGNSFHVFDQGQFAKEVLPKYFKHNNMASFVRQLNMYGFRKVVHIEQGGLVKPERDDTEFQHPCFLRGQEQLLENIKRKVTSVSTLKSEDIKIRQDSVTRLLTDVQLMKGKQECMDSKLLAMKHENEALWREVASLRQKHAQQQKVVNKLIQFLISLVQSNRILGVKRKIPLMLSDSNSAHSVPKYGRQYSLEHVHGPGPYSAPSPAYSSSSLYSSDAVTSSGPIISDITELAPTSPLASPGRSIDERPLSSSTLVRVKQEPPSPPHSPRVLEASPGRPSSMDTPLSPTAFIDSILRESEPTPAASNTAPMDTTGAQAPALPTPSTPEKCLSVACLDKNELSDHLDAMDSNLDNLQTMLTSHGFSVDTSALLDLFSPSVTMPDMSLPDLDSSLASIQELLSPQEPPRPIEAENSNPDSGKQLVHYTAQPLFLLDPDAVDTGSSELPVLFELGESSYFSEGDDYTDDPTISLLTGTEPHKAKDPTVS", "assay": "enhancement of HSF1-driven luciferase signal – cell-based, NIH3T3, luminescence, dose retest, confirmation (AID 435004);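 also: stress induced by proteasome inhibitor MG132 added 30 min after compound; actives raise luminescence as potentiators of the MG132 stress response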", "assay_type": "functional"}, "[15]": {"biological_target": "T1, Disintegrin and metalloproteinase domain-containing protein 17", "assay": "exosite inhibitors of ADAM17, dose response, biochemical (AID 743260)"}},
  "note": "The source made the active and inactive calls.",
  "data": [
    {"smiles": "O=C(NCCc1ccccc1)c1ccc2nccnc2c1", "values": [
      {"measurement": "EC50", "setting": "[1]", "result": "9.34 µM (active)"},
      {"measurement": "EC50", "setting": "[2]", "result": "9.37 µM (active)"},
      {"measurement": "AC50", "setting": "HEK293", "result": "3.05 µM (active)"},
      {"measurement": "AC50", "setting": "[3]", "result": "22.1 µM (active)"},
      {"measurement": "AC50", "setting": "[4]", "result": "20.3 µM (active)"},
      {"measurement": "AC50", "setting": "[5]", "result": "5 µM (active)"},
      {"measurement": "AC50", "setting": "[6]", "result": "4.77 µM (active)"}
    ]},
    {"smiles": "CC(C)C[C@H](NC(=O)c1[nH]cnc1C(=O)Nc1ccc(CNC(=O)OC(C)(C)C)cc1)C(=O)OC(C)(C)C", "values": [
      {"measurement": "IC50", "setting": "[7]", "result": "> 69.5 µM (inactive)"}
    ]},
    {"smiles": "CC(C)C[C@H](NC(=O)c1nc[nH]c1C(=O)Nc1ccc(CNC(=O)OC(C)(C)C)cc1)C(=O)OC(C)(C)C", "values": [
      {"measurement": "IC50", "setting": "[8]", "result": "> 69.5 µM (inactive)"}
    ]},
    {"smiles": "CCC(C)C(NS(=O)(=O)c1ccc(C)cc1)C(=O)Oc1ccc2c3c(c(=O)oc2c1)CCC3", "note": "(stereo not given)", "values": [
      {"measurement": "EC50", "setting": "Kallikrein-7", "result": "> 69.5 µM (inactive)"},
      {"measurement": "AC50", "setting": "Cytochrome P450 1A2", "result": "11.2 µM (inconclusive)"}
    ]},
    {"smiles": "Cc1noc(C)c1Cn1nc(C(=O)O)c2ccccc2c1=O", "values": [
      {"measurement": "IC50", "setting": "H9c2", "result": "18.6 µM (active)"},
      {"measurement": "IC50", "setting": "Galanin receptor type 3", "result": "> 29.9 µM (inactive)"},
      {"measurement": "EC50", "setting": "cells", "result": "> 29.9 µM (inactive)"}
    ]},
    {"smiles": "NC(=O)c1c(-c2ccc(Cl)cc2Cl)csc1NC(=O)Cc1ccccc1", "values": [
      {"measurement": "AC50", "setting": "INS1", "result": "2.86 µM (active)"},
      {"measurement": "IC50", "setting": "Protein Wnt-3a", "result": "1.91 µM (active)"},
      {"measurement": "IC50", "setting": "Galanin receptor type 3", "result": "0.513 µM (active)"},
      {"measurement": "EC50", "setting": "cells", "result": "> 29.9 µM (inactive)"},
      {"measurement": "IC50", "setting": "[9]", "result": "5.15 µM (active)"}
    ]},
    {"smiles": "CC(=O)Nc1ccc(-c2cc(-c3ccc(NC(C)=O)cc3)nc(-c3ccc(NC(C)=O)cc3)n2)cc1", "values": [
      {"measurement": "AC50", "setting": "[10]", "result": "8.27 µM (active)"}
    ]},
    {"smiles": "COc1cc(-c2nc(-c3ccc4c(c3)-c3ccccc3S4(=O)=O)c(-c3ccccc3)[nH]2)cc(OC)c1O", "values": [
      {"measurement": "EC50", "setting": "[11]", "result": "14 µM (active)"},
      {"measurement": "EC50", "setting": "[12]", "result": "19.8 µM (active)"},
      {"measurement": "IC50", "setting": "[13]", "result": "> 69.5 µM (inactive)"}
    ]},
    {"smiles": "COc1cc(-c2nc(-c3ccccc3)c(-c3ccc4c(c3)-c3ccccc3S4(=O)=O)[nH]2)cc(OC)c1O", "values": [
      {"measurement": "EC50", "setting": "[14]", "result": "101 µM (active)"},
      {"measurement": "IC50", "setting": "[15]", "result": "> 69.5 µM (inactive)"}
    ]}
  ]
}
